Reference: patent US20160220609A1, “REGULATION OF STEROIDOGENIC ACTIVITY BY USING PURIFIED SHILAJIT” (NATREON, INC., priority 2013, published 2016)

System: steroidogenic genes in mouse skeletal muscle
Experiment: Gene expression profiling (Affymetrix GeneChip) of skeletal muscle of mice supplemented for 12 weeks
Type: in vivo
Details: 10 mg/kg body weight intragastric in DMSO/corn oil
Experimental: Procedure for Studies in Mice Using Shilajit and DBPs:
Three groups of adult mice (n=8) were intragastrically supplemented with purified Shilajit (PS), 3,8-(OH)2-DBP, or placebo for 12 weeks. At the end of week 12, skeletal muscle tissue was harvested for gene profiling. Some tissue was stored for histology and HPLC analysis.
The control group of mice received DMSO in corn oil while the PS group received 100 mg of purified Shilajit/kg body weight of mice, dissolved in water and the DBP group received 10 mg of 3,8-(OH)2-DBP/kg body weight of mice, dissolved in DMSO/corn oil.
At week 12, the following tissues were collected from mice: heart, lung, liver, brain, muscles, adipose tissue, skeletal muscle (vastus lateralis) and whole blood.
Gene Expression Profiling using GeneChip® Assay
Affymetrix GeneChip® technology (Affymetrix, Santa Clara, Calif.) was used for transcriptome profiling of skeletal muscle tissue. Gene chip assays were performed in accordance with the following references: Roy, S., Biswas, S., Khanna, S., Gordillo, G., Bergdall, V., Green, J., Marsh, C. B., Gould, L. J., Sen, C. K., “Characterization of a preclinical model of chronic ischemic wound,” Physiol. Genomics (2009) May 13; 37(3):211-24; Roy, S., Khanna, S., Rink, C., Biswas, S., Sen, C. […]

## O=c1oc2cc(O)ccc2c2ccc(O)cc12 [3,8-(OH)2-DBP, 3,8-dihydroxy-dibenzo-a-pyrone]
  Effect on steroidogenic activity in mice: did not show significant effect
